Measured values: PMC2481421, “Gene expression response in target organ and whole blood varies as a function of target organ injury phenotype” (Genome Biology, 2008)
Values joined by “and” are separate entries in the source; they are usually repeats but may differ in a detail not shown here. Equal values may be shown once. “Also recorded” adds a separate entry of the source.

Tests used:
[1] = tested on: liver; experiment: Liver histopathology (H&E sections of left liver lobe, severity graded) after a single dose; settings: for Primary site of livery injury: rat, single administration
Experimental: The animals were acclimated for 14 days and observed for absence of disease.
Doses were determined with pilot experiments. For each chemical, doses that elicited a sub-toxic ('low'), a moderately toxic ('medium') or a overtly toxic ('high') response 24 hours after treatment were selected. […] For each compound, control animal groups were treated with vehicle alone. All animals were fasted for 12-18 hours prior to exposure. Groups of four to six animals were dosed between 8:30 and 9:30 a.m.; thereafter, feed was provided ad libitum. After 6, 24 or 48 hours of treatment, animals were anesthetized by isoflurane anesthesia. Whole blood was collected via retro-orbital plexus for hematology and gene expression analysis. Serum was collected for clinical chemistry. The animals were euthanized while under anesthesia by cervical dislocation and necropsied within 4 minutes of sacrifice. The left liver lobe was promptly removed and two defined cross sections were placed in 10% neutral buffered formalin for subsequent histopathology.
The cross sections that were fixed by immersion in 10% neutral buffered formalin (see 'In-life studies' section above) were transferred to histology grade alcohol for 18-24 hours after necropsy. Tissues were then processed, embedded in paraffin, sectioned at 5 microns, and stained with hematoxylin and eosin. A pathologist completed the initial microscopic evaluation of each liver sample for a given compound. […] An independent pathology quality assessment review was performed by a second pathologist on the initial histopathological findings.

[2] = In-life observations: body weight, gross findings before and at necropsy; type: in vivo, Male Fischer 344/N rats; settings: individual animals
Experimental: Doses were determined with pilot experiments. […] Serum was collected for clinical chemistry.

[3] = I.P., PBS vehicle, 25 mg/kg, 48 hours
[4] = I.P., PBS vehicle, 100 mg/kg, 48 hours
[5] = I.P., PBS vehicle, 400 mg/kg, 48 hours
[6] = Gavage, corn oil, 10 mg/kg, 6 hours
[7] = Gavage, corn oil, 10 mg/kg, 24 hours
[8] = Gavage, corn oil, 10 mg/kg, 48 hours
[9] = Gavage, corn oil, 30 mg/kg, 24 hours
[10] = Gavage, corn oil, 50 mg/kg, 6 hours
[11] = Gavage, corn oil, 50 mg/kg, 24 hours
[12] = Gavage, corn oil, 50 mg/kg, 48 hours
[13] = Gavage, corn oil, 300 mg/kg, 6 hours
[14] = Gavage, corn oil, 300 mg/kg, 24 hours
[15] = Gavage, corn oil, 300 mg/kg, 48 hours

## N[C@H]1C(O)O[C@H](CO)[C@H](O)[C@@H]1O (some centres unmarked) [Galactosamine]
[1]; 48 hours
  biliary hyperplasia: evoked biliary hyperplasia
[1]; high dose, 48 hour
  extent of hepatocellular necrosis, amount of inflammatory cell infiltrates and/or indications of hepatocellular repair (mitosis) across animals: variability
[1]
  Primary site of livery injury: Random
[2]; 25 mg/kg, I.P., PBS, 6 hours
  Clin/Ob Prior to Necropsy: Normal
  Gross Findings: No Gross Findings; also recorded: Liver left lobe mottled, median lobe mottled with dark edges
[2]; 25 mg/kg, I.P., PBS, 24 hours
  Clin/Ob Prior to Necropsy: Normal
  Final Body Wt.: 288.30 g and 287.60 g and 307.80 g and 298.50 g
  Gross Findings: No Gross Findings
[2]; 25 mg/kg, I.P., PBS, 48 hours
  Clin/Ob Prior to Necropsy: Normal
  Final Body Wt.: 291.10 g and 291.80 g and 294.20 g
  Gross Findings: No Gross Findings
[2]; 100 mg/kg, I.P., PBS, 6 hours
  Clin/Ob Prior to Necropsy: Normal
  Gross Findings: Liver left lobe mottled, median lobe mottled with dark edges; also recorded: No Gross Findings
[2]; 100 mg/kg, I.P., PBS, 24 hours
  Clin/Ob Prior to Necropsy: Normal
  Final Body Wt.: 270.10 g and 280.10 g and 305.10 g and 290.70 g
  Gross Findings: No Gross Findings; also recorded: Liver median lobe mottled
[2]; 400 mg/kg, I.P., PBS, 6 hours
  Clin/Ob Prior to Necropsy: Normal
  Gross Findings: No Gross Findings; also recorded: Liver left lobe mottled, median lobe mottled with dark edges
[2]; 400 mg/kg, I.P., PBS, 24 hours
  Clin/Ob Prior to Necropsy: Normal
  Final Body Wt.: 270.50 g and 268.20 g and 301.80 g and 280.20 g
  Gross Findings: Liver left lobe with dark edges, median lobe mottled; also recorded: Liver left lobe mottled with dark edges, median lobe mottled; also recorded: No Gross Findings; also recorded: Liver left and median lobes dark and mottled
[2]; [3]
  Clin/Ob Prior to Necropsy: Normal
  Final Body Wt.: 287.20 g
  Gross Findings: No Gross Findings
[2]; [4]
  Clin/Ob Prior to Necropsy: Normal
  Final Body Wt.: 284.20 g and 284.00 g and 295.90 g and 294.00 g
  Gross Findings: No Gross Findings
[2]; [5]
  Clin/Ob Prior to Necropsy: Piloerection, Decreased muscle tone; also recorded: Normal
  Final Body Wt.: 263.20 g and 263.40 g and 260.90 g and 265.30 g
  Gross Findings: Liver left and median lobes pale with mildly rough surface and dark edges; also recorded: Liver left lobe firm and pale with minimally rough surface and dark edges, median lobe firm, pale, and mottled with minimally rough surface; also recorded: Liver left lobe pale, mottled, and firm; median lobe pale with dark areas and firm

## C[C@H]1C(=O)O[C@@H]2CCN3CC=C(COC(=O)[C@](C)(O)[C@]1(C)O)[C@H]23 [Monocrotaline]
[1]
  Primary site of livery injury: Centrilobular
[2]; [6]
  Clin/Ob Prior to Necropsy: normal
  Gross Findings: No Gross Findings
[2]; [7]
  Clin/Ob Prior to Necropsy: normal
  Final Body Wt.: 224.70 g and 231.10 g and 243.30 g and 240.90 g
  Gross Findings: No Gross Findings; also recorded: Liver - Herniated diaphragmatic nodule
[2]; [8]
  Clin/Ob Prior to Necropsy: normal
  Final Body Wt.: 241.60 g and 239.40 g and 266.80 g and 243.40 g
  Gross Findings: Liver median lobe dark area 1x1x1 mm; also recorded: Liver median lobe red area 2x2x2 mm; also recorded: No Gross Findings; also recorded: Liver median lobe right side with red area 2x1x1 mm
[2]; [9]
  Clin/Ob Prior to Necropsy: Piloerection
  Final Body Wt.: 224.70 g and 224.00 g and 229.60 g and 222.60 g
  Gross Findings: Liver left lobe dark and mottled with rough surface, median lobe dark and mottled; also recorded: Liver left and median lobes dark; also recorded: Liver left lobe dark and mottled, median lobe dark; kidney dark
[2]; [10]
  Clin/Ob Prior to Necropsy: normal
  Gross Findings: No Gross Findings
[2]; [11]
  Clin/Ob Prior to Necropsy: normal
  Final Body Wt.: 223.50 g and 226.80 g and 245.00 g and 241.70 g
  Gross Findings: Liver left lobe mottled, median lobe mottled with minimal roughening of surface; also recorded: No Gross Findings; also recorded: Liver median lobe with dark area 2x2x2 mm
[2]; [12]
  Clin/Ob Prior to Necropsy: normal
  Final Body Wt.: 231.90 g and 232.10 g and 240.80 g and 232.90 g
  Gross Findings: Liver left lobe with red area 10x2x2 mm, median lobe dark and mottled; also recorded: Liver left lobe firm, median lobe left side, ventral surface dark, dorsal surface with red area 2x2x2 mm, right side mottled and firm; also recorded: Liver median lobe right and left side with dark lower edges, dorsal surface mottled; also recorded: Liver median lobe with dark edges, right side dark and mottled, dorsal surface dark and mottled with mild roughening of surface
[2]; [13]
  Clin/Ob Prior to Necropsy: normal
  Gross Findings: No Gross Findings; also recorded: Liver, median lobe tan; also recorded: Liver, left lobe mottled, median lobe dark on edges, patchy 2x2x3 mm; also recorded: Liver left and median lobes mottled

## O=NN1CCOCC1 [N-nitrosomorpholine]
[1]
  Primary site of livery injury: Centrilobular
[2]; [6]
  Clin/Ob Prior to Necropsy: Normal
  Gross Findings: No Gross Findings
[2]; [7]
  Clin/Ob Prior to Necropsy: Normal
  Final Body Wt.: 226.20 g and 225.80 g and 258.80 g and 254.30 g
  Gross Findings: No Gross Findings
[2]; [8]
  Clin/Ob Prior to Necropsy: Normal
  Final Body Wt.: 238.00 g and 238.70 g and 249.90 g
  Gross Findings: No Gross Findings
[2]; [10]
  Clin/Ob Prior to Necropsy: Normal
  Gross Findings: No Gross Findings
[2]; [11]
  Clin/Ob Prior to Necropsy: Normal; also recorded: Corneal Opacity, right eye (pre-dose)
  Final Body Wt.: 225.10 g and 189.30 g and 237.50 g and 242.10 g
  Gross Findings: Liver posterior aspect of left lobe with dark focus (1x1 mm); also recorded: Liver left and median lobes with minimal roughening of surfaces; also recorded: Liver left and median lobes pale; also recorded: Liver left lobe pale and firm, median lobe firm with minimal roughening of surface
[2]; [12]
  Clin/Ob Prior to Necropsy: Normal
  Final Body Wt.: 229.00 g and 222.00 g and 233.70 g and 237.20 g
  Gross Findings: Liver left and median lobes with mild roughening of surfaces; also recorded: Liver left and median lobes firm with minimal roughening of surfaces; also recorded: No Gross Findings
[2]; [13]
  Clin/Ob Prior to Necropsy: Normal; also recorded: Corneal Opacity, right eye (pre-dose)
  Gross Findings: No Gross Findings
[2]; [14]
  Clin/Ob Prior to Necropsy: Normal
  Final Body Wt.: 213.90 g and 207.30 g and 219.00 g and 228.80 g
  Gross Findings: Liver left lobe mottled with minimal roughening of surface, median lobe with minimal roughening of surface; also recorded: Liver left lobe with minimal roughening of surface, median lobe mottled with minimal roughening of surface; also recorded: Liver left and median lobes with firm with mild roughening of surfaces
[2]; [15]
  Clin/Ob Prior to Necropsy: Ungroomed Appearance
  Final Body Wt.: 205.40 g and 202.50 g and 201.50 g and 203.90 g
  Gross Findings: Liver left and median lobes dark with mild roughening of surfaces; median lobe with prominent centrilobular pattern; also recorded: Liver left and median lobes dark with mild roughening of surfaces; median lobe with fibrin on surface; also recorded: Liver left and median lobes firm and dark with mild roughening of surfaces
